Read-outs that look alike come from different tables or passages of the source.
Experiment: Second sacrificial agent testing protocol: paste air measurements with DDBS (0.0125 wt %) and rating; for Overall performance rating (second protocol rating): key: 0: Fail; 1: Poor; 2: Good; 3: Preferred; 4: Most preferred; for SA Rating (0-4): key: 0: Fail; 1: Poor; 2: Good; 3: Preferred; 4: Most preferred
Experimental: The second sacrificial agents evaluation protocol has been designed to assess the relative potential value of candidate sacrificial agents with a maximum of five paste air measurements.
The first two measurements (of entrained air) are carried out with a standard AEA in a portland cement paste and in a FA:cement paste; these two tests provide reference values which can be used for the relative assessment of a series of sacrificial agents. The other three paste air measurements pertain to the properties and effectiveness of the sacrificial agents.
1. Measurement of the air entrained by a standard air-entraining admixture in a cement paste of fixed composition and fluidity; the latter is a reference system which provides ‘reference’ air entrainment values (‘A’ in FIG. 8).
2. […] The difference between ‘B’ and ‘A’ in FIG. 8 is the reduction in air entrainment due to the presence of the fly ash; this is illustrated as ‘C’ in FIG. 8.
In the present SA testing and evaluation protocol, the fly ash selected should remain the same for the entire set of additives tested, in order to provide reliable relative performance ranking. For the present series of test, the Fly Ash selected was the one identified as B1 in Table 1 below; the physico-chemical properties of this fly ash are reported in Table 1.
In testing for the relative performance of the sacrificial agent, the sacrificial agent dosage was chosen in the range 0-0.1 wt %, which corresponds to typical dosage values observed in paste, mortar and concrete tests reported in Tables 2, 3 and 4 and Tables 7 to 34.
3. Measurement of the air entrainment of the SA, by itself, in a cement-only paste at a dosage of 0.1 wt %; this is illustrated as ‘D’ in FIG. 8.
4. Measurement of the air entrained by DDBS in the FA-cement paste comprising 0.05% wt SA, under the same conditions as described in 2 above. The air entrainment value observed in this system, compared to that observed in the absence of the SA, yields the air recovery due to the SA, and is illustrated schematically as ‘E’ in FIG. 8.
5. Same as in 4 above, but with a higher SA concentration at 0.1 wt %; the air entrainment observed, again compared to the value observed in the absence of the SA, yields a second value of air recovery by the SA and is illustrated as ‘F’ in FIG. 8.
For the relative performance rating of the group of products chosen as potential SA and listed in Table 36, the following rating scheme (Tables A and B) was adopted (referring to FIG. 8 and quantities defined therein):
1: Chemical name of compound tested as potential sacrificial agent • Col. 2: Level of air entrainment by the candidate sacrificial agent, at a concentration of 0.1 wt %, in a Portland cement paste ([…]) • Col. […] 5: Sacrificial agent overall rating index (described below) • Col. 6: Hydrophilic-Lipophilic Balance (HLB) values of candidate sacrificial agent (source and significance of HLB data given below) • Col. 7: Logarithm of the Oil(octanol)/water partition coefficient (Kow) of the candidate sacrificial agents (source and significance of data given below).

[1] = Portland cement paste (PCA), […]
[2] = sacrificial agent overall rating index
[3] = B1 FA/cement paste, 0.0125 wt % DDBS, 0.10 wt % SA
[4] = sum of ratings of air entrainment recovery by 0.05% and 0.1% SA, DDBS 0.0125 wt %, 50:50 B1 fly ash:cement paste
[5] = B1 FA/cement paste, 0.0125 wt % DDBS, 0.05 wt % SA

Compound | B1 + 0.0125% DDBS + 0.05% SA (air entrainment) (B1 FA/cement paste, […]) | B1 + 0.0125% DDBS + 0.1% SA (air entrainment) (B1 FA/cement paste, […]) | PCA + 0.1% SA (level of air entrainment by the candidate sacrificial agent) [1] | SA Rating (0-4) [2] | B1 + 0.0125% DDBS + 0.1% SA (air entrainment) [3] | Overall performance rating (second protocol rating) [4] | Overall performance rating (second protocol rating) | B1 + 0.0125% DDBS + 0.05% SA (air entrainment) [5] | also measured
COP(=O)([O-])OC.[Na+] [Dimethylphosphate Na] | 2.5 | 2.7 | 1.3 | 0 | – | – | – | – | –
C[S+](C)[O-] [Dimethylsulfoxide] | 2.5 | 3.1 | 0.0 | 0 | – | – | – | – | –
CNC(=O)NC [Dimethylurea] | – | – | 0.5 | 2 | 2.9 | 2 | – | – | –
CCOCCOC(C)=O [E.G. mono-ethyl ether acetate] | – | – | – | – | – | – | – | – | B1 + 0.0125% DDBS + 0.05% SA (air entrainment): 4.7; B1 + 0.0125% DDBS + 0.1% SA (air entrainment): 4.7; PCA + 0.1% SA (level of air entrainment by the candidate sacrificial agent): 0.0; SA Rating (0-4): 2
CCO [Ethanol] | – | – | – | – | – | – | – | – | B1 + 0.0125% DDBS + 0.05% SA (air entrainment): 3.1; B1 + 0.0125% DDBS + 0.1% SA (air entrainment): 3.3; PCA + 0.1% SA (level of air entrainment by the candidate sacrificial agent): 1.5; SA Rating (0-4): 0
CCOC(C)=O [Ethyl acetate] | 3.2 | 3.3 | 0.8 | 0 | – | – | – | – | –
CCCC(=O)OCC [Ethylbutyrate] | 5.2 | 4.3 | 0.7 | 3 | – | – | 3 | – | –
CCCCCC(=O)OCC [Ethylcaproate] | – | – | 0.0 | 1 | 2.4 | 1 | – | 4.3 | –
CCOCCO [Ethylene Glycol Ethyl Ether] | 5.0 | 6.8 | 1.2 | 4 | – | – | 4 | – | –
CC(C)COCCO [Ethylene Glycol iso-Butyl Ether] | – | – | 1.7 | 4 | 9.5 | 4 | – | 8.8 | –
CCCCOCCO [Ethylene Glycol n-Butyl Ether] | 8.8 | 9.5 | 2.0 | 4 | – | – | 4 | – | –
CCCOCCO [Ethylene Glycol n-Propyl Ether] | – | – | 1.4 | 4 | 7.4 | 4 | – | 7.4 | –
OCCO [Ethylene Glycol] | – | – | – | – | – | – | – | – | B1 + 0.0125% DDBS + 0.05% SA (air entrainment): 2.4; B1 + 0.0125% DDBS + 0.1% SA (air entrainment): 2.8; PCA + 0.1% SA (level of air entrainment by the candidate sacrificial agent): 0.0; SA Rating (0-4): 0
O=C1OCCO1 [Ethylene carbonate] | 2.5 | 1.9 | 0.0 | 0 | – | – | – | – | –
CCOCCOC(C)=O [Ethylene glycol mono-ethyl ether acetate] | – | – | – | – | – | – | 2 | – | –
CCOC(=O)CC [Ethylpropionate] | – | – | 0.9 | 3 | 4.6 | 3 | – | 4.9 | –
CCCCCC(=O)O [Hexanoic acid] | 5.1 | 4.9 | 2.4 | 4 | – | – | 4 | – | –

Compound | B1 + 0.0125% DDBS + 0.05% SA (air entrainment) (B1 FA/cement paste, […]) | B1 + 0.0125% DDBS + 0.1% SA (air entrainment) (B1 FA/cement paste, […]) | PCA + 0.1% SA (level of air entrainment by the candidate sacrificial agent) [1] | SA Rating (0-4) [2] | B1 + 0.0125% DDBS + 0.1% SA (air entrainment) [3] | Overall performance rating (second protocol rating) [4] | Overall performance rating (second protocol rating) | B1 + 0.0125% DDBS + 0.05% SA (air entrainment) [5] | also measured
CCCCCCO [Hexanol] | 4.2 | 2.7 | 0.0 | 1 | – | – | 1 | – | –
O[C@H]1[C@H](O)[C@@H](O)[C@H](O)[C@@H](O)[C@H]1O [Inositol] | 2.1 | 2.1 | 0.1 | 0 | – | – | – | – | –
CO [Methanol] | 1.9 | 2.2 | 0.6 | 0 | – | – | – | – | –
CC(=O)CC(C)C [Methyl isobutylketone (MIBK)] | – | – | 0.3 | 2 | 3.9 | – | – | 5.6 | –
CC(=O)CC(C)C [Methyl isobutylketone] | – | – | – | – | – | 2 | – | – | –
CCCCCCCCCCCC(=O)OC [Methyllaurate] | – | – | 1.0 | 1 | 2.8 | 1 | – | 4.6 | –
CCCCCCCC(=O)OC [Methyloctanoate] | – | – | 0.0 | 2 | 2.2 | 2 | – | 4.8 | –
CCCCCCCC/C=C\CCCCCCCC(=O)OC [Methyloleate] | – | – | 0.5 | 2 | 2.7 | 2 | – | 5.1 | –
CCCCCCCCCCCCCCCC(=O)OC [Methylpalmitate] | 5.3 | 3.4 | 2.5 | 2 | – | – | 2 | – | –
CCC(=O)OC [Methylpropionate] | 2.7 | 3.5 | 0.2 | 0 | – | – | – | – | –
CCCCOC(=O)c1ccccc1C(=O)OCCCC [N-Butyl phthalate] | – | – | – | 0 | 2.1 | – | – | 2.2 | PCA + 0.1% SA (level of air entrainment by the candidate sacrificial agent) (Portland cement paste (PCA), 0.1 wt % SA, no DDBS): 0.0
CC(C)(C)CO [Neopentanol] | 4.9 | 4.7 | 0.8 | 3 | – | – | 3 | – | –
CCCCCCCC/C=C\CCCCCCCC(=O)O [Oleic acid] | 2.2 | 1.9 | 2.1 | 0 | – | – | – | – | –
O=C(O)Cc1ccccc1 [Phenyl acetic acid] | 2.8 | 4.2 | 0.2 | 1 | – | – | 1 | – | –
OCCc1ccccc1 [Phenyl ethyl alcohol] | 4.5 | 5.5 | 0.7 | 3 | – | – | 3 | – | –
CC(O)COc1ccccc1 (centres unmarked) [Propylene Glycol Phenyl Ether] | – | – | 1.0 | 4 | 6.7 | 4 | – | 7.2 | –

Source: patent US7892350B2, “Sacrificial agents for fly ash concrete” (Boral Material Technologies Inc., priority 2003, dated 2011)
